# Key:
# [1] = HMB concentration over time in brain interstitial fluid (hippocampus microdialysis) after oral administration; format: in vivo, Sprague-Dawley rats
# Description: In this Example, the appearance of HMB and its concentration over time in brain interstitial fluid were analyzed after oral administration of HMB.
# Initially, Sprague-Dawley rats (Charles River, France) weighing 400-500 g were housed in cages at constant room temperature (22±2° C.) and 45-55% humidity under a regular 12-hour light/dark schedule. Food and water were freely available. Procedures involving animals and their care were conducted in conformity with the institutional guidelines that are in compliance with national laws and EC policies for the Care and Use of Laboratory Animals (RD 2101-2005, 86/609/CEE).
# A guide cannula was stereotaxically inserted into the hippocampus area of each anesthetized rat at the coordinates described in a stereotaxic atlas for rats. The rats were allowed to recover from surgery for at least three days. On the first day of the experiment, a brain microdialysis probe (MD-2204, BR-4, 4 mm membrane, available from BASi, West Lafayette, Ind.) was inserted into the guide cannula of each rat. The probe was perfused with Ringer's solution (aCFS Harvard apparatus, #597316) at a constant rate of 2 μl/min. The rat was left in the cage with space for relatively free movement. Samples of dialysate were automatically collected every twenty minutes. A bolus dose of HMB (250 mg/kg body weight) was given by gavage 100 min after starting the experiment and sampling was continued for another 160-220 min.
# HMB was measured using UPLC-MS. Specifically, samples of 30-40 μl in aCSF were microfiltered through a 0.2 μm nylon filter, diluted with an equal amount of water, and then injected into the UPLC-TQD (Acuity-TQD system available from Waters Corporation, Milford, Mass.). HMB was analyzed using a BEH Hillic column 1.7 μm; 2.1×150 mm using a gradient consisting of H2O:MeCN 0.1% formic acid. The mass spectrometer was set to Ion Mode ES+.
# Neuro-2A cells = experiment: Rate of protein synthesis, incorporation of [3H]-tyrosine into cellular protein pool; format: cell-based; conditions: HMB vs. Control, FIG. 4
# Description: The effect of HMB on the rate of protein synthesis in Neuro-2A cells was determined by measuring the incorporation of [3H]-tyrosine into cellular protein pool. The phosphorylative status of mTOR and up/down-protein kinases (Akt, ERK 1/2) was determined by western blot. The cell proliferation/viability was determined with the MTT (3-(4,5-dimethylthiazol-2-yl)-2,5-diphenyltetrazolium bromide) colorimetric assay. Data are expressed as mean±SEM. Student t-test was used to analyze the results.
# [2] = system: MEF2 transcription factor; experiment: MEF2-dependent transcription luciferase activity (pGL3-4xMEF transfection); format: cell-based; conditions: Neuro 2A cells; inhibitor added with HMB; FIGS. 5B-5D
# Description: For the transfection experiments in this Example, Neuro-2A cells were used at 80-90% confluence grown in Dulbecco's Modified Eagle's medium (DMEM). Cells were exposed for 5 hours to plasmid pGL3-4×MEF, which contains 4 copies in tandem of the MEF2D binding DNA sequence prior to the sequence of DNA which codes for firefly luciferase. Effectors were added to the medium for 18 h and luciferase activity was determined. For the study of inhibition of signaling factors, inhibitors of the phosphatidyl-inositol 3 kinase (LY294002), ERK 1/2 (PD98059) and mTORC1 activations (rapamycin) were added to the cells.
# Data are expressed as mean±SEM. Student t-test was used to analyze the results.
"crossing of the blood brain barrier ([1]; oral administration, microdialysis model in rats)","maximum concentration of HMB measured in brain microdialysates ([1]; rat 1, 250 mg/kg bolus by gavage)","time after administration at which HMB appeared in the brain ([1]; rat 1, 250 mg/kg bolus by gavage, brain microdialysate (fraction 7))","HMB concentration level at end of sampling ([1]; rat 1, more than 2.5 hours after the gavage)","maximum concentration of HMB in brain microdialysates ([1]; rat 2, 250 mg/kg bolus by gavage)","fraction in which HMB was detected for the first time ([1]; rat 2, 250 mg/kg by gavage at fraction 5, 20 min fractions)","HMB concentration level at end of experiment ([1]; rat 2, more than 3.5 h after the gavage)",effect of inhibitor on the HMB-mediated increase in MEF2 [2],SMILES,increase on the protein synthesis (Neuro-2A cells)
able to cross the blood brain barrier,10.5 ppm,40 min,had not decreased,more than 4 ppm,fraction 7,had not yet reached basal level,,"CC(C)(O)CC(=O)O [HMB, beta-hydroxy-beta-methylbutyrate]",20%
,,,,,,,totally blocked,COc1cccc(-c2cc(=O)c3ccccc3o2)c1N [PD98059],
